In patent US8822486B2, “Spiropiperidine compounds” (Eli Lilly and Company, priority 2009, dated 2014):

Experiments:
Format in all cases: cell-based
PPARγ = biological target: T1, PPARγ (Homo sapiens, UniProt P37231); test: PPARγ reporter functional assay in CV1 cells; settings: examined up to 10 μM, luciferase reporter, 24 hours
T1 sequence (P37231 1-505): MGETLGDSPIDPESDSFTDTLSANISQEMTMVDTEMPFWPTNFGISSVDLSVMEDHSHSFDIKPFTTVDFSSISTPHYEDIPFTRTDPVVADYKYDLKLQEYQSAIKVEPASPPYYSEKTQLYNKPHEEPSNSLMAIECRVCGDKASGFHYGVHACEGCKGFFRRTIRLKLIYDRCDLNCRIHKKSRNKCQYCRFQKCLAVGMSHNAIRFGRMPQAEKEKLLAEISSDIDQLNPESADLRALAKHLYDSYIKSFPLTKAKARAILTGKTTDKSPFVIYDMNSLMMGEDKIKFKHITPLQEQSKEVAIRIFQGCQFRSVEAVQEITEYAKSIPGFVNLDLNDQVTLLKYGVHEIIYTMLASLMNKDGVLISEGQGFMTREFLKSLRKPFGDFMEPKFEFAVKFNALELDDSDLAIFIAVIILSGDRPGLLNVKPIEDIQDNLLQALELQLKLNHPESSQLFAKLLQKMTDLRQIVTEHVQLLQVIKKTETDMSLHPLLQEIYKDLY
T1 sequence (P19793 1-462 partner): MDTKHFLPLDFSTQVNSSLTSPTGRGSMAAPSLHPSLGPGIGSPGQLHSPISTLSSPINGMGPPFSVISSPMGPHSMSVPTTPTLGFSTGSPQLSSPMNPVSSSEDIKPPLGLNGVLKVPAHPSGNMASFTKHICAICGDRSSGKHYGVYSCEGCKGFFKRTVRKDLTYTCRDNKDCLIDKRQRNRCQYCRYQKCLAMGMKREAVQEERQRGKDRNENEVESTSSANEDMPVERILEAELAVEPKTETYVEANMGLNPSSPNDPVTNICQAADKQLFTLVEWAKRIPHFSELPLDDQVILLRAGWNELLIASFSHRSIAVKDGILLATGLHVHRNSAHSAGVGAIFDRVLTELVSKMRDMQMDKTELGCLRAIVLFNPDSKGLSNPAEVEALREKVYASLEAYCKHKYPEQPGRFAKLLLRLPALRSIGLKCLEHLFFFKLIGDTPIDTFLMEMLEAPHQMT
Excerpt: (§1) Gal4 PPARα, Gal4 PPARδ, and PPARγ reporter functional assays are also used to monitor the selectivity of exemplified compounds. CV1 cells, which are derived from the renal tissue of an African green monkey, are transfected with various receptor and reporter plasmids using Fugene. For the Gal4 PPARα and PPARδ assays, a reporter plasmid containing five tandem copies of the yeast transcription protein Gal4 response element, cloned upstream of a firefly luciferase gene driven by the major late promoter of adenovirus, is transfected together with a Simian Virus 40 (SV40) driven plasmid constitutively expressing a hybrid protein containing the Gal4 DNA binding domain (DBD), and either the PPARα or PPARδ ligand binding. For the PPARγ assay, plasmids encoding PPARγ and RXRα, both driven by a cytomegalovirus (CMV) promoter are transfected together with a plasmid containing luciferase reporter cDNA driven by the TK promoter and a receptor response element (2×PPRE). Cells are transfected in T225 cm^2 cell culture flasks in DMEM media with 5% charcoal-stripped FBS. […] After 24 hours incubation with compounds, cells are lysed and luciferase activity is determined as a measure of receptor activation by luminescence. […] The maximum percent stimulation is determined versus maximum stimulation obtained with 10 μM of an appropriate PPAR agonist reference compound. […]

human GPR40 = biological target: T2, human GPR40 (Homo sapiens, UniProt O14842); test: Calcium Flux Primary Assay
T2 construct: expressed in transfected cells; host or cells: HEK293
Experimental: Calcium Flux Primary Assay
HEK293 cells over expressing the human GPR40 cDNA maintained in Dulbecco's modified Eagle's medium with F12 medium in 3:1 ratio supplemented with 10% FBS and 800 μg/ml geneticin at 37° C. and 5% CO2 are employed for the study. Agonist assays are performed using a Calcium 4 Dye assay kit (Molecular Devices) in the presence (0.1%) or absence of fatty acid free BSA in the assay buffer (1×HBSS (Hank's Balanced Salt Solution) & 20 mM HEPES (4-(2-hydroxyethyl)-1-piperazineethanesulfonic acid). Receptor activation is measured as an increase in intracellular calcium using the Fluorometric Imaging Plate Reader (FLIPR). Maximum change in fluorescence over the base line is used to determine agonist response. EC50 (effective concentration at half the maximal response) value of the compound is calculated using Excel Fit software (version 4; IDBS) by plotting concentration vs relative fluorescence units (RFUs).

[1] = tested on: mouse insulinoma cell line Min6; test: Glucose Dependent Insulin Secretion (GDIS) assay in Min6 cells; settings: 1 μM plus 25 mM glucose compared to 25 mM glucose alone; 2 h incubation
Experimental: Because activation of GPR40 is known to result in insulin secretion which is dependent on high glucose concentrations, two separate assay systems (insulinoma cell line and primary rodent islets) are developed to further characterize compounds that are known to increase intracellular calcium in the GPR40 primary assay discussed above.
GDIS assays are performed using the mouse insulinoma cell line Min6. Min6 cells are maintained in Dulbecco's Modified Eagle's Medium (DMEM) containing non-essential amino acids, 10% FBS, […] 2-mercaptoethanol and 1% penicillin and streptomycin at 37° C. plus 5% CO2 On the day of the experiment, the cells are washed twice with 200 μl of pre-warmed Krebs-ringer buffer without glucose. Addition of 200 μL of pre-warmed Krebs-ringer buffer containing 2.5 mM glucose is used to starve the cells followed by the addition of compounds in the presence of a high concentration of glucose (25 mM). The plate is incubated at 37° C. for 2 hours. At the end of the 2 h incubation, the supernatant is gently transferred into a Millipore filter plate and spun at 200 g (gravitational force) for 3 minutes. Insulin is assayed using a Mercodia Insulin estimation kit.

Gal4 PPARα = biological target: T3, Gal4 PPARα (Homo sapiens, UniProt Q07869); test: Gal4 PPARα reporter functional assay in CV1 cells; settings: examined up to 10 μM, luciferase reporter, 24 hours
T3 construct: expressed in transfected cells; host or cells: CV1 (African green monkey kidney)
T3 sequence (Q07869 239-466 limits assumed): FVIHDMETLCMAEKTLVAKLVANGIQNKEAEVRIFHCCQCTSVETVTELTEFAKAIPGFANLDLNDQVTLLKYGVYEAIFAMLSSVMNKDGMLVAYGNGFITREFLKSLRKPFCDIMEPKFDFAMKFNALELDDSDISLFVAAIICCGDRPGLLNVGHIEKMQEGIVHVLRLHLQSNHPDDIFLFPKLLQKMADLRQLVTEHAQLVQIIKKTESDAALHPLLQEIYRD
Excerpt: as §1

T2 sequence (O14842 whole entry): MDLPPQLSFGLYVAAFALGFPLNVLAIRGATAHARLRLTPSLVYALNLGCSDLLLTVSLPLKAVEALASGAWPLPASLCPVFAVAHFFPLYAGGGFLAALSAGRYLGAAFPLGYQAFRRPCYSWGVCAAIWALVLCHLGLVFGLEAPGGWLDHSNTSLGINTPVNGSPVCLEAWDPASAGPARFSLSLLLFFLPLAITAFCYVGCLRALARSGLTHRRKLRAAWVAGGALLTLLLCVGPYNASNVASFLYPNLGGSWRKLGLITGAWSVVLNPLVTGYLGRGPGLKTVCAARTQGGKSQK

CC#C[C@@H](CC(=O)O)c1ccc(OCc2ccc(CN3CCC4(C=Cc5ccccc54)CC3)s2)cc1 [Example 1, (3S)-3-[4-[[5-(Spiro[indene-1,4′-piperidine]-1′-ylmethyl)-2-thienyl]methoxy]phenyl]hex-4-ynoic acid]
functional activation of PPARγ (PPARγ): No functional activation | EC50 (human GPR40; HEK293 cells over expressing human GPR40, intracellular calcium, FLIPR): 114 nM | Percent efficacy (human GPR40; maximal response compared to the natural ligand, linoleic acid): 91+/−9% | increase in insulin secretion [1]: two-fold increase | functional activation of PPARα (Gal4 PPARα): No functional activation
